Values quoted from earlier work as cited in publication PMC6311893, “Computational prediction of plasma protein binding of cyclic peptides from small molecule experimental data using sparse modeling techniques” (BMC Bioinformatics, 2018).
Positions of bridges follow the written chain, without caps; N, C: chain ends. Non-standard residues stand in square brackets, D forms with d. Residues, ends and D or L forms follow the SMILES beside them. *: point of attachment. Octanoyl(6-Me) = CCC(C)CCCCC(=O)*; Dab = NCC[CH](N)C(=O)O

System: plasma protein
Conditions: cited from earlier work

Compound | PPB (fb)
COc1ccc(/C=C\c2cc(OC)c(OC)c(OC)c2)cc1OP(=O)(O)O [Combretastatin A4 phosphate] | 0.77

Same assay, conditions: fraction bound to plasma protein; small molecule dataset, sheet 1-SM (Set Dte = test, Dtr = training); ref Ingle et al.; cited from earlier work

Compound | PPB (fb)
C[C@@H]([C@@H](O)c1ccc(O)cc1)N1CCC(O)(c2ccccc2)CC1 [Traxoprodil] | 0.37
CCN(CC)C(=O)N1CCN(C)CC1 [diethylcarbamazine] | 0
O=C(O)C1=C(CSc2nnnn2CS(=O)(=O)O)CS[C@@H]2[C@H](NC(=O)[C@H](O)c3ccccc3)C(=O)N12 [cefonicid] | 0.98
N[C@@H](C(=O)N[C@@H]1C(=O)N2C(C(=O)O)=C(Cl)CS[C@H]12)c1ccccc1 [cefaclor] | 0.25
NC(Cc1cc(I)c(Oc2cc(I)c(O)c(I)c2)c(I)c1)C(=O)O (stereo not drawn) [thyroxine] | 0.99
CC(=O)O[C@H]1C[C@@H]2CC[C@@H]3[C@H](CC[C@@]4(C)[C@H]3C[C@H](N3CC[N+](C)(C)CC3)[C@@H]4OC(C)=O)[C@@]2(C)C[C@@H]1N1CC[N+](C)(C)CC1 [Pipecuronium] | 0.02
Sc1ncnc2nc[nH]c12 [Mercaptopurine] | 0.17
CCCCC[C@H](O)/C=C/[C@H]1[C@H](O)CC(=O)[C@@H]1CCCCCCC(=O)O [alprostadil] | 0.92
CN(C)CCN(C)N1C=C(c2ccccc2)C2C=CC=CC21 (stereo not drawn) [Binedaline] | 0.96
CCN(CC)CCNC(=O)c1cc(Cl)c(N)cc1OC [Metoclopramide] | 0.37
Cc1ncc2c(c1O)COC2c1ccc(Cl)cc1 (stereo not drawn) [cicletanine] | 0.93
CC(=O)Nc1ccccc1 [acetanilide] | 0.07
COc1cccc(-n2cc(C(=O)O)c(=O)c3cc(F)c(N4CCN(C)CC4)cc32)c1 [5ba(m-OCH3__N-CH3)] | 0.54
C=C[C@H]1C[N@@]2CC[C@H]1C[C@@H]2[C@@H](O)c1ccnc2ccc(OC)cc12 [Quinidine] | 0.74
NC(=O)N1c2ccccc2C=Cc2ccccc21 [carbamazepine] | 0.75

Same assay, conditions: fraction bound to plasma protein; small molecule dataset, sheet 1-SM, Set Dtr; ref Ingle et al.; cited from earlier work

Compound | PPB (fb)
C[C@H]1[C@H](OC(=O)CCC(=O)O)O[C@@H]2O[C@@]3(C)CC[C@H]4[C@H](C)CC[C@@H]1[C@@]24OO3 [Artesunate] | 0.75
CN(C)CCc1c[nH]c2ccc(CS(=O)(=O)N3CCCC3)cc12 [Almotriptan] | 0.37
C=CCc1ccccc1OCC(O)CNC(C)C (stereo not drawn) [Alprenolol] | 0.81
NS(=O)(=O)c1cc(C2(O)NC(=O)c3ccccc32)ccc1Cl (stereo not drawn) [Chlorthalidone] | 0.75
O=C1CCc2ccc(OCCCCN3CCN(c4cccc(Cl)c4Cl)CC3)cc2N1 [Aripiprazole] | 0.99
O=C(O)c1cc(-c2ccc(F)cc2F)ccc1O [Diflunisal] | 0.99
Cc1nccn1CC1CCc2c(c3ccccc3n2C)C1=O (stereo not drawn) [Ondansetron] | 0.73
OC(Cn1cncn1)(Cn1cncn1)c1ccc(F)cc1F [Fluconazole] | 0.16
C[C@@H](CN1CC(=O)NC(=O)C1)N1CC(=O)NC(=O)C1 [Dexrazoxane] | 0.01
COC(=O)Nc1nc2ccc(C(=O)c3ccccc3)cc2[nH]1 [Mebendazole] | 0.93
COc1cc(OC)c(C(=O)CCCN2CCCC2)c(OC)c1 [Buflomedil] | 0.6
OCCN1CCN(CC/C=C2/c3ccccc3Sc3ccc(Cl)cc32)CC1 [zuclopenthixol] | 0.98
O=c1[nH]cnc2c1ncn2[C@H]1CC[C@@H](CO)O1 [Didanosine] | 0.04
O=C(CCCN1CCC(O)(c2ccc(Cl)cc2)CC1)c1ccc(F)cc1 [Haloperidol] | 0.92
O=C(c1ccccc1)c1ccc2n1CCC2C(=O)O (stereo not drawn) [Ketorolac] | 0.99
CC(C)N(CCC(C(N)=O)(c1ccccc1)c1ccccn1)C(C)C (stereo not drawn) [Disopyramide] | 0.87
CCC1CN2CCC1CC2[C@@H](O)c1ccnc2ccc(OC)cc12 (stereo partly drawn) [Dihydroquinidine] | 0.78
C[C@H]1O[C@@H](n2cc(F)c(=O)[nH]c2=O)[C@H](O)[C@@H]1O [Doxifluridine] | 0.39
CCCNC(=O)NS(=O)(=O)c1ccc(Cl)cc1 [Chlorpropamide] | 0.96

Same assay, conditions: fraction bound to plasma protein; small molecule dataset, sheet 1-SM; ref Ingle et al.; cited from earlier work

Compound | PPB (fb)
Fc1ccc(C(c2ccc(F)cc2)N2CCN(C/C=C/c3ccccc3)CC2)cc1 [flunarizine] | 0.95
CC1CCN(CCCC(=O)c2ccc(F)cc2)CC1 [melperone] | 0.5
CCCCC1C(=O)N(c2ccccc2)N(c2ccccc2)C1=O [phenylbutazone] | 0.98
COc1cc(Cc2cnc(N)nc2N)c2c(c1OC)OC(C1CC1)C=C2 (stereo not drawn) [iclaprim] | 0.93
CCCN[C@H]1CCc2nc(N)sc2C1 [pramipexole] | 0.15
Cc1cc2nc3c(=O)[nH]c(=O)nc-3n(C[C@H](O)[C@H](O)[C@H](O)CO)c2cc1C [riboflavin] | 0.6
CCN(CCCCOC(=O)c1ccc(OC)c(OC)c1)C(C)Cc1ccc(OC)cc1 (stereo not drawn) [mebeverine] | 0.75
CCOCC(=O)NC1C(=O)N2C1SC(C)(C)C2C(=O)O (stereo not drawn) [penicillin6] | 0.28
O=C1CCC(N2C(=O)c3ccccc3C2=O)C(=O)N1 (stereo not drawn) [Thalidomide] | 0.57
O=C(O)c1cc(/N=N/c2ccc(O)c(C(=O)O)c2)ccc1O [olsalazine] | 0.99
Cc1cccc(Nc2ccccc2C(=O)O)c1C [mefenamic acid] | 0.99
CC1(C)SC2C(NC(=O)C(N)c3cccc(O)c3)C(=O)N2C1C(=O)O (stereo not drawn) [penicillin32] | 0.17
C#C[C@]1(O)CC[C@H]2[C@@H]3CCC4=CC(=NO)CC[C@@H]4[C@H]3CC[C@@]21CC (mixture of isomers) [norelgestromin] | 0.97
CNS(=O)(=O)Cc1ccc2[nH]cc(CCN(C)C)c2c1 [Sumatriptan] | 0.17
C/C(=C\C(=O)OCCCCCCCCC(=O)O)C[C@@H]1OC[C@H](C[C@@H]2O[C@H]2[C@@H](C)[C@H](C)O)[C@@H](O)[C@H]1O [mupirocin] | 0.96
COCCOc1c(OC)cc(Cc2cnc(N)nc2N)cc1OC [tetroxoprim] | 0.15
COCCOc1cnc(NS(=O)(=O)c2ccccc2)nc1 [glymidine] | 0.8
CCC(CC)(CC)C(=O)NC1C(=O)N2C1SC(C)(C)C2C(=O)O (stereo not drawn) [penicillin20] | 0.94
COc1ccc2ccccc2c1C(=O)NC1C(=O)N2C1SC(C)(C)C2C(=O)O (stereo not drawn) [penicillin67] | 0.8
N[C@@H]1[C@H]2CN(c3nc4c(cc3F)c(=O)c(C(=O)O)cn4-c3ccc(F)cc3F)C[C@@H]12 [Trovafloxacin] | 0.81
CC(C(=O)NCCN1CCCC1)c1ccc(OS(=O)(=O)C(F)(F)F)cc1 (stereo not drawn) [JMC_04] | 0.7
O=C(O)C(=O)O [oxalic acid] | 0
CNCCC(Oc1ccc(C(F)(F)F)cc1)c1ccccc1 (stereo not drawn) [fluoxetine] | 0.95
CC(Oc1cccc2ccccc12)C(=O)NC1C(=O)N2C1SC(C)(C)C2C(=O)O (stereo not drawn) [penicillin70] | 0.97

Same assay, conditions: human, plasma; cited from earlier work

Compound | PPB (fb)
CCC(C)CCCCC(=O)NC(CCN)C(=O)NC(C(=O)NC(CCN)C(=O)NC1CCNC(=O)C(C(C)O)NC(=O)C(CCN)NC(=O)C(CCN)NC(=O)C(CC(C)C)NC(=O)C(Cc2ccccc2)NC(=O)C(CCN)NC1=O)C(C)O (stereo not drawn) [polymyxin-B] ({Octanoyl(6-Me)}-[Dab]T[Dab][Dab][Dab]FL[Dab][Dab]T; lactam 4-C; configuration not given here) | 0.1

Same assay, conditions: plasma; cited from earlier work

Compound | PPB (fb)
CCCOC(=O)Cc1ccc(OCC(=O)N(CC)CC)c(OC)c1 [propanidid] | 0.75
COc1cccc(C2(O)CCCCC2CN(C)C)c1 (stereo not drawn) [Tramadol] | 0.16
C=CC[N@@+]12CC[C@@]34c5ccccc5N5/C=C6/[C@H]7C[C@H]8[C@@]9(CC[N@@+]8(CC=C)C/C7=C/CO)c7ccccc7N(/C=C(/[C@@H](C[C@@H]31)/C(=C\CO)C2)[C@H]54)[C@@H]69 [alcuronium] | 0.4
O=C1OC(c2ccc(O)c(S(=O)(=O)O)c2)(c2ccc(O)c(S(=O)(=O)O)c2)c2c(Br)c(Br)c(Br)c(Br)c21 [sulfobromophthalein] | 0.99
Iloprost | 0.6
CN1C(=O)CN=C(C2=CCCCC2)c2cc(Cl)ccc21 [tetrazepam] | 0.7
CC1(C)SC2C(NC(=O)Cc3cccs3)C(=O)N2C1C(=O)O (stereo not drawn) [penicillin71] | 0.58
CN1CCN=C(c2ccccc2)c2cc(Cl)ccc21 [medazepam] | 0.99
CN1C(=O)CN=C(c2ccccc2F)c2cc([N+](=O)[O-])ccc21 [Flunitrazepam] | 0.81
C=C(Br)CC1(C(C)C)C(=O)NC(=O)NC1=O [ibomal] | 0.34
Oc1ccc2c(c1)[C@@]13CCCC[C@@]1(O)[C@@H](C2)N(CC1CCC1)CC3 [Butorphanol] | 0.81
C=CCC1(C(C)C#CCC)C(=O)N=C(O)N(C)C1=O (stereo not drawn) [Methohexital] | 0.75
nilvadipine | 0.99
CN[C@@H](C)Cc1ccccc1 [Methamphetamine] | 0.15
Nc1c2c(nc3ccccc13)CCCC2 [Tacrine] | 0.65
CC(=O)O[C@H]1C[C@H](O[C@H]2[C@@H](O)C[C@H](O[C@H]3[C@@H](O)C[C@H](O[C@H]4CC[C@@]5(C)[C@H](CC[C@@H]6[C@@H]5C[C@@H](O)[C@]5(C)[C@@H](C7=CC(=O)OC7)CC[C@]65O)C4)O[C@@H]3C)O[C@@H]2C)O[C@H](C)[C@H]1O [alpha-acetyldigoxin] | 0.25
CCN1CCN(C(=O)N[C@@H](C(=O)N[C@@H]2C(=O)N3[C@@H]2SC(C)(C)[C@@H]3C(=O)O)c2ccccc2)C(=O)C1=O [Piperacillin] | 0.4
COC1C(C)OC(OC2C=C3CCC4C(CCC5(C)C(c6ccc(=O)oc6)CCC45O)C3(C)CC2)C(O)C1O (stereo not drawn) [meproscillarin] | 0.96
N#CC(CCN1CCC(C(N)=O)(N2CCCCC2)CC1)(c1ccccc1)c1ccccc1 [Piritramide] | 0.94
polythiazide | 0.85
Nicardipine | 0.98
